{
  "source": "patent US20020045638A1",
  "about": "“Method of treating estrogen receptor positive carcinoma” (priority 2000, published 2002)",
  "key": {"[1]": {"tested_on": "BG-1 human ovarian cancer cells", "test": "Inhibition of growth of BG-1 ovarian cancer cells (MTT), with MacSynergy II synergy analysis", "type": "cell-based", "conditions": "for inhibition at 0.005 µM / inhibition at 0.01 µM / inhibition at 0.05 µM / inhibition at 0.1 µM / inhibition at 0.2 µM / inhibition at 0.4 µM: Homo sapiens, read-out: Percent Inhibition; for Percent Inhibition: Table G, ERA-923 0 nM", "protocol": "In these test procedures, rapamycin 42-ester with 3-hydroxy-2-(hydroxymethyl)-2-methylpropionic acid was used as a representative rapamycin, and 2-(4-hydroxy-phenyl)-3-methyl-1-[4-(2-piperdin-1-yl-ethoxy)-benzyl-1 H-indol-5-ol, raloxifene, and 4-hydroxytamoxifen were used as representative antiestrogens.\nOne day before the experiment, cells were plated in 96-well plates at a cell density of 2,500 cells/well in IMEM medium supplemented with 10% fetal bovine serum. The next day, cells were treated with various concentrations of antiestrogen and rapamycin 42-ester with 3-hydroxy-2-(hydroxymethyl)-2-methylpropionic acid (referred to as CCI-779 in the tables below). Five or six-days later, cell growth was monitored."}, "[2]": {"tested_on": "MCF-7 human breast cancer cells", "test": "Inhibition of growth of MCF-7 breast cancer cells (MTT), with MacSynergy II synergy analysis;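 further: cells treated five or six days with single agents or combinations, growth read by MTT, synergy surface equals observed % inhibition minus Bliss additive prediction, values under 0% signal antagonism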", "conditions": "for inhibition at 0.005 µM / inhibition at 0.01 µM / inhibition at 0.05 µM / inhibition at 0.1 µM / inhibition at 0.2 µM / inhibition at 0.4 µM: Homo sapiens"}},
  "note": "Read-outs that look alike come from different tables or passages of the source.",
  "data": [
    {"smiles": "CO[C@H]1C[C@@H]2CC[C@@H](C)[C@@](O)(O2)C(=O)C(=O)N2CCCC[C@H]2C(=O)O[C@H]([C@H](C)C[C@@H]2CC[C@@H](OC(=O)C(C)(CO)CO)[C@H](OC)C2)CC(=O)[C@H](C)/C=C(\\C)[C@@H](O)[C@@H](OC)C(=O)[C@H](C)C[C@H](C)/C=C/C=C/C=C/1C", "note": "[CCI-779, rapamycin 42-ester with 3-hydroxy-2-(hydroxymethyl)-2-methylpropionic acid]", "values": [
      {"measurement": "inhibition at 0.005 µM", "setting": "[1]; Table H, CCI-779 5 nM, 4-Hydroxytamoxifen 0 nM", "value": 21.4, "unit": "%"},
      {"measurement": "inhibition at 0.01 µM", "setting": "[1]; Table H, CCI-779 10 nM, 4-Hydroxytamoxifen 0 nM", "value": 24.9, "unit": "%"},
      {"measurement": "inhibition at 0.05 µM", "setting": "[1]; Table H, CCI-779 50 nM, 4-Hydroxytamoxifen 0 nM", "value": 56.3, "unit": "%"},
      {"measurement": "inhibition at 0.1 µM", "setting": "[1]; Table H, CCI-779 100 nM, 4-Hydroxytamoxifen 0 nM", "value": 56.4, "unit": "%"},
      {"measurement": "inhibition at 0.2 µM", "setting": "[1]; Table H, CCI-779 200 nM, 4-Hydroxytamoxifen 0 nM", "value": 60.7, "unit": "%"},
      {"measurement": "inhibition at 0.4 µM", "setting": "[1]; Table H, CCI-779 400 nM, 4-Hydroxytamoxifen 0 nM", "value": 64.9, "unit": "%"},
      {"measurement": "inhibition at 0.005 µM", "setting": "[1]; Table I, CCI-779 5 nM, Raloxifene 0 nM", "value": 8.26, "unit": "%"},
      {"measurement": "inhibition at 0.01 µM", "setting": "[1]; Table I, CCI-779 10 nM, Raloxifene 0 nM", "value": 12.5, "unit": "%"},
      {"measurement": "inhibition at 0.05 µM", "setting": "[1]; Table I, CCI-779 50 nM, Raloxifene 0 nM", "value": 37.7, "unit": "%"},
      {"measurement": "inhibition at 0.1 µM", "setting": "[1]; Table I, CCI-779 100 nM, Raloxifene 0 nM", "value": 42.1, "unit": "%"},
      {"measurement": "inhibition at 0.2 µM", "setting": "[1]; Table I, CCI-779 200 nM, Raloxifene 0 nM", "value": 48.4, "unit": "%"},
      {"measurement": "inhibition at 0.4 µM", "setting": "[1]; Table I, CCI-779 400 nM, Raloxifene 0 nM", "value": 53, "unit": "%"},
      {"measurement": "Percent Inhibition", "setting": "[1]; CCI-779 5 nM", "value": 19.98, "unit": "%"},
      {"measurement": "Percent Inhibition", "setting": "[1]; CCI-779 10 nM", "value": 22.68, "unit": "%"},
      {"measurement": "Percent Inhibition", "setting": "[1]; CCI-779 50 nM", "value": 49.76, "unit": "%"},
      {"measurement": "Percent Inhibition", "setting": "[1]; CCI-779 100 nM", "value": 58.79, "unit": "%"},
      {"measurement": "Percent Inhibition", "setting": "[1]; CCI-779 200 nM", "value": 55.65, "unit": "%"},
      {"measurement": "Percent Inhibition", "setting": "[1]; CCI-779 400 nM", "value": 61.94, "unit": "%"},
      {"measurement": "increase of growth inhibition as estimated by the IC50", "setting": "[2]; CCI-779 in the presence of non-inhibitory concentrations of ERA-923", "value": "approximately 40 fold"},
      {"measurement": "inhibition at 0.005 µM", "setting": "[2]; MCF7, read-out: Percent Inhibition, Table B, CCI-779 5 nM, 4-Hydroxytamoxifen 0 nM", "value": -16.5, "unit": "%"},
      {"measurement": "inhibition at 0.01 µM", "setting": "[2]; MCF7, read-out: Percent Inhibition, Table B, CCI-779 10 nM, 4-Hydroxytamoxifen 0 nM", "value": 1.47, "unit": "%"},
      {"measurement": "inhibition at 0.05 µM", "setting": "[2]; MCF7, read-out: Percent Inhibition, Table B, CCI-779 50 nM, 4-Hydroxytamoxifen 0 nM", "value": 15, "unit": "%"},
      {"measurement": "inhibition at 0.1 µM", "setting": "[2]; MCF7, read-out: Percent Inhibition, Table B, CCI-779 100 nM, 4-Hydroxytamoxifen 0 nM", "value": 24.6, "unit": "%"},
      {"measurement": "inhibition at 0.2 µM", "setting": "[2]; MCF7, read-out: Percent Inhibition, Table B, CCI-779 200 nM, 4-Hydroxytamoxifen 0 nM", "value": 25.2, "unit": "%"},
      {"measurement": "inhibition at 0.4 µM", "setting": "[2]; MCF7, read-out: Percent Inhibition, Table B, CCI-779 400 nM, 4-Hydroxytamoxifen 0 nM", "value": 34, "unit": "%"},
      {"measurement": "inhibition at 0.005 µM", "setting": "[2]; MCF7, read-out: Percent Inhibition, Table C, CCI-779 5 nM, Raloxifene 0 nM", "value": -13.8, "unit": "%"},
      {"measurement": "inhibition at 0.01 µM", "setting": "[2]; MCF7, read-out: Percent Inhibition, Table C, CCI-779 10 nM, Raloxifene 0 nM", "value": -3.3, "unit": "%"},
      {"measurement": "inhibition at 0.05 µM", "setting": "[2]; MCF7, read-out: Percent Inhibition, Table C, CCI-779 50 nM, Raloxifene 0 nM", "value": 35.3, "unit": "%"},
      {"measurement": "inhibition at 0.1 µM", "setting": "[2]; MCF7, read-out: Percent Inhibition, Table C, CCI-779 100 nM, Raloxifene 0 nM", "value": 38.1, "unit": "%"},
      {"measurement": "inhibition at 0.2 µM", "setting": "[2]; MCF7, read-out: Percent Inhibition, Table C, CCI-779 200 nM, Raloxifene 0 nM", "value": 38.1, "unit": "%"},
      {"measurement": "inhibition at 0.4 µM", "setting": "[2]; MCF7, read-out: Percent Inhibition, Table C, CCI-779 400 nM, Raloxifene 0 nM", "value": 39.8, "unit": "%"},
      {"measurement": "inhibition at 0.005 µM", "setting": "[2]; MCF7, read-out: Percent Inhibition, Table E, CCI-779 0 nM + CCI-779 5 nM", "value": -4.19, "unit": "%"},
      {"measurement": "inhibition at 0.01 µM", "setting": "[2]; MCF7, read-out: Percent Inhibition, Table E, CCI-779 0 nM + CCI-779 10 nM", "value": 10.2, "unit": "%"},
      {"measurement": "inhibition at 0.05 µM", "setting": "[2]; MCF7, read-out: Percent Inhibition, Table E, CCI-779 0 nM + CCI-779 50 nM", "value": 49.8, "unit": "%"},
      {"measurement": "inhibition at 0.1 µM", "setting": "[2]; MCF7, read-out: Percent Inhibition, Table E, CCI-779 0 nM + CCI-779 100 nM", "value": 46.8, "unit": "%"},
      {"measurement": "inhibition at 0.2 µM", "setting": "[2]; MCF7, read-out: Percent Inhibition, Table E, CCI-779 0 nM + CCI-779 200 nM", "value": 53.5, "unit": "%"},
      {"measurement": "inhibition at 0.4 µM", "setting": "[2]; MCF7, read-out: Percent Inhibition, Table E, CCI-779 0 nM + CCI-779 400 nM", "value": 55.3, "unit": "%"},
      {"measurement": "inhibition at 0.005 µM", "setting": "[2]; MCF7, read-out: Percent Inhibition, Table E, CCI-779 5 nM + CCI-779 5 nM", "value": 13.2, "unit": "%"},
      {"measurement": "inhibition at 0.01 µM", "setting": "[2]; MCF7, read-out: Percent Inhibition, Table E, CCI-779 5 nM + CCI-779 10 nM", "value": 18.6, "unit": "%"},
      {"measurement": "inhibition at 0.05 µM", "setting": "[2]; MCF7, read-out: Percent Inhibition, Table E, CCI-779 5 nM + CCI-779 50 nM", "value": 49.2, "unit": "%"},
      {"measurement": "inhibition at 0.1 µM", "setting": "[2]; MCF7, read-out: Percent Inhibition, Table E, CCI-779 5 nM + CCI-779 100 nM", "value": 51, "unit": "%"},
      {"measurement": "inhibition at 0.2 µM", "setting": "[2]; MCF7, read-out: Percent Inhibition, Table E, CCI-779 5 nM + CCI-779 200 nM", "value": 58.1, "unit": "%"},
      {"measurement": "inhibition at 0.4 µM", "setting": "[2]; MCF7, read-out: Percent Inhibition, Table E, CCI-779 5 nM + CCI-779 400 nM", "value": 64.1, "unit": "%"},
      {"measurement": "inhibition at 0.005 µM", "setting": "[2]; MCF7, read-out: Percent Inhibition, Table E, CCI-779 10 nM + CCI-779 5 nM", "value": 18.8, "unit": "%"},
      {"measurement": "inhibition at 0.01 µM", "setting": "[2]; MCF7, read-out: Percent Inhibition, Table E, CCI-779 10 nM + CCI-779 10 nM", "value": 23.5, "unit": "%"}
    ]}
  ]
}
